Drawing on patent US9932350B2, “Inhibitors of IRAK4 activity” (MERCK SHARP & DOHME CORP., priority 2014, dated 2018), this text covers IC50 for 34 compounds.

Chain of GST tagged IRAK4 (Q9NWZ3 whole entry): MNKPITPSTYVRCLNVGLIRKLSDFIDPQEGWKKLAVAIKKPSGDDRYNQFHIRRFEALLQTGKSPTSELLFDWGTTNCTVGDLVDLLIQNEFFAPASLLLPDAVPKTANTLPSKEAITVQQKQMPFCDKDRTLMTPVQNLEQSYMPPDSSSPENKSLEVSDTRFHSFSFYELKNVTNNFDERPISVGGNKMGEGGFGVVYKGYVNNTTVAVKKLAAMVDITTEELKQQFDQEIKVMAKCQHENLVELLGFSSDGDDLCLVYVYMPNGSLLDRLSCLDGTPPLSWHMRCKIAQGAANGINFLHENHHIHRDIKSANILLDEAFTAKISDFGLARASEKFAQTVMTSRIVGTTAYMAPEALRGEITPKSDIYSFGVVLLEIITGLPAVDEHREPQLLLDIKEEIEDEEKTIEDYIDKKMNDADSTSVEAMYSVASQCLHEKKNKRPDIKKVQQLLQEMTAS

The assay has as its target GST tagged IRAK4 (Homo sapiens (Human), UniProt Q9NWZ3). The experiment in a line: IRAK4 Kinase Assay (IMAP fluorescence polarization). The assay is classed as biochemical. The following applies: 0.5 nM GST tagged IRAK4, 100 μM ATP, 30 minutes at 25° C. The gist of the method:
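GST-tagged IRAK4 (0.5 nM) phosphorylates 100 nM fluorescent peptide with 100 μM ATP in 10 mM Tris pH 7.2, 1 mM MgCl2, 1 mM DTT, 0.01% Tween 20 for 30 min at 25 °C. Phosphorylation read as IMAP nanoparticle-binding fluorescence polarization after stop reagent.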
On the technique in general: Polarisation of emitted light reports the rotation of a fluorescent probe.
For the compound `N#Cc1ccc2ncnc(N[C@H]3CC[C@H](N4CCC5OCCC54)CC3)c2c1` (stereo partly drawn) [Example 3-39, 4-{[trans-4-(hexahydro-4H-furo[3,2-b]pyrrol-4-yl)cyclohexyl]amino} quinazoline-6-carbonitrile], the IC50 (in general, the concentration that inhibits the measured activity by half) came to 0.174 µM.

`CO[C@@H]1CCN([C@H]2CC[C@H](Nc3ncnc4ccc(C#N)cc34)CC2)C1` [Example 3-40, 4-({trans-4-[(3R)-3-methoxypyrrolidin-1-yl]cyclohexyl}amino) quinazoline-6-carbonitrile] displayed a 50% inhibitory concentration (IC50) of 0.051 µM. With `N#Cc1ccc2ncnc(N[C@H]3CC[C@H](N4CCC(CN5CCOCC5)CC4)CC3)c2c1` [Example 3-43, 4-({trans-4-[4-(mopholin-4-ylmethyl)piperidin-1-yl]cyclohexyl}amino) quinazoline-6-carbonitrile], the IC50 worked out at 0.009 µM. For `N#Cc1ccc2ncnc(N[C@H]3CC[C@H](N4CCCC4)CC3)c2c1` [Example 3-44, 4-{[trans-4-(pyrrolidin-1-yl)cyclohexyl]amino} quinazoline-6-carbonitrile] the value was 0.015 µM; for `CC(C)(C)OC(=O)N1CCN([C@H]2CC[C@H](Nc3ncnc4ccc(C#N)cc34)CC2)CC1` [Example 3-45, tert-butyl 4-{trans-4-[(6-cyanoquinazolin-4-yl)amino]cyclohexyl} piperazine-1-carboxylate], 0.006 µM; for `N#Cc1ccc2ncnc(N[C@H]3CC[C@H](N4CCCC(CN5CCOCC5)C4)CC3)c2c1` (stereo partly drawn) [Example 3-46, 4-({trans-4-[3-(morpholin-4-ylmethyl)piperidin-1-yl]cyclohexyl}amino) quinazoline-6-carbonitrile], 0.007 µM.

In turn, `N#Cc1ccc2ncnc(N[C@H]3CC[C@H](N4C5CCC4COC5)CC3)c2c1` [Example 3-47, 4-{[trans-4-(3-oxa-8-azabicyclo[3.2.1]oct-8-yl)cyclohexyl]amino} quinazoline-6-carbonitrile] registered an IC50 of 0.872 µM. For `N#Cc1ccc2ncnc(N[C@H]3CC[C@H](N4C[C@H]5CC[C@@H](C4)O5)CC3)c2c1` [Example 3-50, 4-({trans-4-[(1R,5S)-8-oxa-3-azabicylco[3.2.1]oct-3-yl]cyclohexyl}amino) quinazoline-6-carbonitrile] the value was 0.579 µM; for `CC1(C)CN([C@H]2CC[C@H](Nc3ncnc4ccc(C#N)cc34)CC2)CCO1` [Example 3-51, 4-{[trans-4-(2,2-dimethylmorpholin-4-yl)cyclohexyl]amino} quinazoline-6-carbonitrile], 0.089 µM; for `CC(C)[C@@H]1COCCN1[C@H]1CC[C@H](Nc2ncnc3ccc(C#N)cc23)CC1` [Example 3-52, 4-({trans-4-[(3R)-3-(propan-2-yl)morpholin-4-yl]cyclohexyl}amino) quinazoline-6-carbonitrile], 0.026 µM.

Compound `N#Cc1ccc2ncnc(N[C@H]3CC[C@H](N4CCCC(F)(F)CC4)CC3)c2c1` [Example 3-53, 4-{[trans-4-(4,4-difluoroazepan-1-yl)cyclohexyl]amino} quinazoline-6-carbonitrile] registered an IC50 of 0.012 µM. Compound `N#Cc1ccc2ncnc(N[C@H]3CC[C@H](N4CCC(F)(F)CC4)CC3)c2c1` [Example 3-54, 4-{[trans-4-(4,4-difluoropiperidin-1-yl)cyclohexyl]amino} quinazoline-6-carbonitrile] had an IC50 of 0.003 µM. Then `N#Cc1ccc2ncnc(N[C@H]3CC[C@H](N4CCC(O)C4)CC3)c2c1` (stereo partly drawn) [Example 3-55, 4-{[trans-4-(3-hydroxypyrrolidin-1-yl)cyclohexyl]amino} quinazoline-6-carbonitrile], with 0.015 µM. Then `CN(C)[C@H]1CC[C@H](Nc2ncnc3ccc(OCCCC(N)=O)cc23)CC1` [Example 4-1, 4-[(4-{[Trans-4-(dimethylamino)cyclohexyl]amino}quinazolin-6-yl)oxy]butanamide], with 0.525 µM; and `N#Cc1cc2c(N[C@H]3CC[C@H](N4CCOCC4)CC3)ncnc2cc1F` [Example 5-1, 7-Fluoro-4-{[trans-4-(morpholin-4-yl)cyclohexyl]amino}quinazoline-6-carbonitrile], with 0.027 µM. For `Cc1c(C#N)ccc2ncnc(N[C@H]3CC[C@H](N4CCOCC4)CC3)c12` [Example 5-2, 5-methyl-4-{[trans-4-(morpholin-4-yl)cyclohexyl]amino} quinazoline-6-carbonitrile] the value was 0.052 µM; for `N#Cc1ccc2ncnc(N[C@H]3CC[C@H](N4CCN(C(=O)C5CC5)CC4)CC3)c2c1` [Example 6-1, 4-({Trans-4-[4-(cyclopropylcarbonyl)piperazin-1-yl]cyclohexyl}amino)quinazoline-6-carbonitrile], 0.003 µM; for `CC(=O)N1CCN([C@H]2CC[C@H](Nc3ncnc4ccc(C#N)cc34)CC2)CC1` [Example 6-2, 4-{[trans-4-(4-acetylpiperazin-1-yl)cyclohexyl]amino} quinazoline-6-carbonitrile], 0.011 µM.

`CC(C)(C)C(=O)N1CCN([C@H]2CC[C@H](Nc3ncnc4ccc(C#N)cc34)CC2)CC1` [Example 6-3, 4-({trans-4-[4-(2,2-dimethylpropanoyl)piperazin-1-yl]cyclohexyl}amino) quinazoline-6-carbonitrile] came in with an IC50 of 0.008 µM. For `CC(C)(CF)C(=O)N1CCN([C@H]2CC[C@H](Nc3ncnc4ccc(C#N)cc34)CC2)CC1` [Example 6-4, 4-({trans-4-[4-(3-fluoro-2,2-dimethylpropanoyl)piperazin-1-yl]cyclohexyl}amino) quinazoline-6-carbonitrile] the value was 0.009 µM; for `CC(C)(F)C(=O)N1CCN([C@H]2CC[C@H](Nc3ncnc4ccc(C#N)cc34)CC2)CC1` [Example 6-5, 4-({trans-4-[4-(2-fluoro-2-methylpropanoyl)piperazin-1-yl]cyclohexyl}amino) quinazoline-6-carbonitrile], 0.012 µM; for `CC(F)(F)C(=O)N1CCN([C@H]2CC[C@H](Nc3ncnc4ccc(C#N)cc34)CC2)CC1` [Example 6-6, 4-({trans-4-[4-(2,2-difluoropropanoyl)piperazin-1-yl]cyclohexyl}amino) quinazoline-6-carbonitrile], 0.016 µM. `CC(F)C(=O)N1CCN([C@H]2CC[C@H](Nc3ncnc4ccc(C#N)cc34)CC2)CC1` (stereo partly drawn) [Example 6-7, 4-({trans-4-[4-(2-fluoropropanoyl)piperazin-1-yl]cyclohexyl}amino) quinazoline-6-carbonitrile] returned an IC50 of 0.014 µM. For `CC1(C(=O)N2CCN([C@H]3CC[C@H](Nc4ncnc5ccc(C#N)cc45)CC3)CC2)CC1` [Example 6-8, 4-[(trans-4-{4-[(1-methylcyclopropyl)carbonyl]piperazin-1-yl}cyclohexyl)amino] quinazoline-6-carbonitrile] the value was 0.015 µM.

In the case of `CC1(C(=O)N2CCN([C@H]3CC[C@H](Nc4ncnc5ccc(C#N)cc45)CC3)CC2)COC1` [Example 6-9, 4-[(trans-4-{4-[(3-methyloxetan-3-yl)carbonyl]piperazin-1-yl}cyclohexyl)amino] quinazoline-6-carbonitrile], the IC50 turned out to be 0.014 µM. `COCC(=O)N1CCN([C@H]2CC[C@H](Nc3ncnc4ccc(C#N)cc34)CC2)CC1` [Example 6-10, 4-({trans-4-[4-(methoxyacetyl)piperazin-1-yl]cyclohexyl}amino) quinazoline-6-carbonitrile] returned an IC50 of 0.016 µM. Then `N#Cc1ccc2ncnc(N[C@H]3CC[C@H](N4CCN(C(=O)[C@@H]5CCCO5)CC4)CC3)c2c1` [Example 6-11, 4-[(trans-4-{4-[(2S)-tetrahydrofuran-2-ylcarbonyl]piperazin-1-yl}cyclohexyl)amino] quinazoline-6-carbonitrile], with 0.011 µM. `N#Cc1ccc2ncnc(N[C@H]3CC[C@H](N4CCN(C(=O)C(F)F)CC4)CC3)c2c1` [Example 6-12, 4-({trans-4-[4-(difluoroacetyl)piperazin-1-yl]cyclohexyl}amino) quinazoline-6-carbonitrile]: the IC50 was found to be 0.027 µM. For `N#Cc1ccc2ncnc(N[C@H]3CC[C@H](N4CCN(C(=O)C5CC(F)C5)CC4)CC3)c2c1` (stereo partly drawn) [Example 6-13, 4-[(trans-4-{4-[(3-fluorocyclobutyl)carbonyl]piperazin-1-yl}cyclohexyl)amino] quinazoline-6-carbonitrile] the value was 0.01 µM; for `N#Cc1ccc2ncnc(N[C@H]3CC[C@H](N4CCN(C(=O)C5CC5(F)F)CC4)CC3)c2c1` (stereo partly drawn) [Example 6-14, 4-[(trans-4-{4-[(2,2-difluorocyclopropyl)carbonyl]piperazin-1-yl}cyclohexyl)amino] quinazoline-6-carbonitrile], 0.013 µM; for `N#Cc1ccc2ncnc(N[C@H]3CC[C@H](N4CCN(C(=O)C5CCC5)CC4)CC3)c2c1` [Example 6-15, 4-({trans-4-[4-(cyclobutylcarbonyl)piperazin-1-yl]cyclohexyl}amino) quinazoline-6-carbonitrile], 0.01 µM. In the case of `N#Cc1ccc2ncnc(N[C@H]3CC[C@H](N4CCN(C(=O)C5CCCC5)CC4)CC3)c2c1` [Example 6-16, 4-({trans-4-[4-(cyclopentylcarbonyl)piperazin-1-yl]cyclohexyl}amino) quinazoline-6-carbonitrile], the IC50 stood at 0.01 µM. Turning to `N#Cc1ccc2ncnc(N[C@H]3CC[C@H](N4CCN(C(=O)CC5CC5)CC4)CC3)c2c1` [Example 6-17, 4-({trans-4-[4-(cyclopropylacetyl)piperazin-1-yl]cyclohexyl}amino) quinazoline-6-carbonitrile], the IC50 came out at 0.009 µM. For the compound `N#Cc1ccc2ncnc(N[C@H]3CC[C@H](N4CCN(C(=O)CC5COC5)CC4)CC3)c2c1` [Example 6-18, 4-({trans-4-[4-(oxetan-3-ylacetyl)piperazin-1-yl]cyclohexyl}amino) quinazoline-6-carbonitrile], the IC50 worked out at 0.01 µM.
